pEC50, pIC50: −log10 of the molar value.
Experiments:
P450RAI-1 = biological target: T1, P450RAI-1 (Homo sapiens, UniProt O43174); assay: P450RAI-1 cell-based inhibitor assay; conditions: P450RAI-1 stably transfected HeLa cells, [3H]-RA metabolism, 3 hours at 37° C.; read-out: P450RAI INHIBITION DATA INTACT HELA IC50
T1 construct: expressed in transfected cells; host or cells: HeLa cells, stably transfected, hygromycin selection
T1 sequence (O43174 1-497): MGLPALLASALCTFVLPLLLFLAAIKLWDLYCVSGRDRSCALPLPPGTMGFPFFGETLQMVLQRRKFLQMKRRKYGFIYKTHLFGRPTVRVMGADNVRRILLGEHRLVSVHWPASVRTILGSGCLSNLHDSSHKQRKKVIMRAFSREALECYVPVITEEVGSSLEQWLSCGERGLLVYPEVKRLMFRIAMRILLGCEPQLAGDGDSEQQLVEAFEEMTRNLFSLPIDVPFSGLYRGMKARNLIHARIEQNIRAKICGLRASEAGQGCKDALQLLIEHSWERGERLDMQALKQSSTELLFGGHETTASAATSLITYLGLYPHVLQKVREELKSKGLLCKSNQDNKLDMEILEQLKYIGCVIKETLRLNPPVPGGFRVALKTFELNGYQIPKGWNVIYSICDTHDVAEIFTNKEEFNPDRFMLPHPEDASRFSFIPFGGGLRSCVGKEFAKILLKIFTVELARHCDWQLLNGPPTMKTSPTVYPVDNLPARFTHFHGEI
Procedure, shortened: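 HeLa cells stably expressing the enzyme (5×10^5/well) incubated 3 h at 37 °C with 0.05 μCi [3H]-all-trans-RA and compound at 10, 1 or 0.1 μM in triplicate. Water-soluble radioactive metabolites counted by scintillation; IC50 derived manually from log-transformed data.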

RARβ = biological target: T2, RARβ (Homo sapiens, UniProt P10826); assay: chimeric receptor transactivation assay, RARβ; format: cell-based; conditions: EC50 line of EC50/(EFFICACY)/Kd, read-out: RAR EC50 β
T2 sequence (P10826 183-417 limits assumed): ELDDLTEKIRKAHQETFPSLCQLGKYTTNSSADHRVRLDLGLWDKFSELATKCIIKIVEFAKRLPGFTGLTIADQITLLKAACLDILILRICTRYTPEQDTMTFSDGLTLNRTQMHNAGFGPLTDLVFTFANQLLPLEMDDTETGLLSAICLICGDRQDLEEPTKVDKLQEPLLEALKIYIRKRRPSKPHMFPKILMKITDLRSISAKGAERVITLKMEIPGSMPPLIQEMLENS
From the text: (§1) Assays described below measure the ability of a compound to bind to, and/or activate various retinoid receptor subtypes. When in these assays a compound binds to a given receptor subtype and activates the transcription of a reporter gene through that subtype, then the compound is considered an agonist of that receptor subtype. […] In the below described assays the ability of the compounds to bind to RARα, RARβ, RARγ, RXRα, RXRβ and RXRγ receptors, and the ability or inability of the compounds to activate transcription of a reporter gene through these receptor subtypes can be tested.
(§2) As far as specific assays are concerned, a chimeric receptor transactivation assay which tests for agonist-like activity in the RARα, RARβ, AND RARγ, receptor subtypes, and which is based on work published by Feigner P. L. and Holm M. (1989) Focus, 112 is described in detail in U.S. Pat. No. 5,455,265. The specification of U.S. Pat. No. 5,455,265 is hereby expressly incorporated by reference. The numeric results obtained with several preferred compounds of this invention in this assay are shown below in Table 1.

RARγ = biological target: T3, RARγ (Homo sapiens, UniProt P13631); assay: chimeric receptor transactivation assay, RARγ; format: cell-based; conditions: EC50 line of EC50/(EFFICACY)/Kd, read-out: RAR EC50 γ
T3 sequence (P13631 185-419 limits assumed): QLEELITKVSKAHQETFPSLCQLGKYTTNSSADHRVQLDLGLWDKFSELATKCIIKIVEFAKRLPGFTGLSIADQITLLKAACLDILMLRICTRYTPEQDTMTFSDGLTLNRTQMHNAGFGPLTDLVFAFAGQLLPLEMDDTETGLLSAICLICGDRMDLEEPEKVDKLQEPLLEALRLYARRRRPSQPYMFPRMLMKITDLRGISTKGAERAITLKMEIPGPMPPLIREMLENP
From the text: as §1, §2

RARα = biological target: T4, RARα (Homo sapiens, UniProt P10276); assay: chimeric receptor transactivation assay, RARα; format: cell-based; conditions: EC50 line of EC50/(EFFICACY)/Kd, read-out: RAR EC50 α
T4 sequence (P10276 183-462 limits assumed): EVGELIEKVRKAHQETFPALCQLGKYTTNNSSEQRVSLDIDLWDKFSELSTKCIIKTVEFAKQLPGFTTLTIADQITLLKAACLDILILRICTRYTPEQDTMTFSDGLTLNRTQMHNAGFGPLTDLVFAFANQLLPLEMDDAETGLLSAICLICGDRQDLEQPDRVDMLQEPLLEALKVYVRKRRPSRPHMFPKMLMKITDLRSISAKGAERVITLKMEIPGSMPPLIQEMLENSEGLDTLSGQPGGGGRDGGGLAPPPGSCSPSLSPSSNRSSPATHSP
From the text: as §1, §2

Compound | pIC50 (P450RAI-1) | pEC50 (RARβ) | pEC50 (RARγ) | pEC50 (RARα)
CN(C1CC1)C1CCC(C)(C)c2cc(C#Cc3ccc(C(=O)O)c(F)c3)ccc21 (stereo not shown) [Compound 13, 4-[5-(Cyclopropyl-methyl-amino)-8,8-dimethyl-5,6,7,8-tetrahydro-naphthalene-2-yl-ethynyl]-2-fluoro Benzoic Acid] | 5.51 | 8.49 | 6.94 | 
CC1(C)CCC(=O)c2ccc(C#Cc3ccc(C(=O)O)c(F)c3)cc21 [Compound 10, 2-Fluoro-4-(8,8-dimethyl-5-oxo-5,6,7,8-tetrahydro-naphthalen-2yl-ethynyl)benzoic Acid] | 6.15 | 9.52 | 8.22 | 7.24

From US6369225B1, “Compounds having activity as inhibitors of cytochrome P450RAI” (Allergan Sales, Inc., priority 2000, dated 2002)
